Test results: PubChem BioAssay (NCI)
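GI50: concentration for 50% inhibition of growth. Definition used: TGI = concentration required for complete inhibition of growth.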

Key:
Assay in all cases: inhibition of tumour cell growth, NCI panel, 384-well format
786-0 renal = tested on: 786-0 renal
A498 renal = tested on: A498 renal
A549 NSCLC = tested on: A549 NSCLC
ACHN renal = tested on: ACHN renal
BT-549 breast = tested on: BT-549 breast
CAKI-1 renal = tested on: CAKI-1 renal
CCRF-CEM leukemia = tested on: CCRF-CEM leukemia
COLO 205 colon = tested on: COLO 205 colon
DU-145 prostate = tested on: DU-145 prostate
EKVX NSCLC = tested on: EKVX NSCLC
HCC-2998 colon = tested on: HCC-2998 colon
HCT-116 colon = tested on: HCT-116 colon
HCT-15 colon = tested on: HCT-15 colon
HL-60(TB) leukemia = tested on: HL-60(TB) leukemia
HOP-62 NSCLC = tested on: HOP-62 NSCLC
HOP-92 NSCLC = tested on: HOP-92 NSCLC
HS 578T breast = tested on: HS 578T breast
HT29 colon = tested on: HT29 colon
IGROV1 ovarian = tested on: IGROV1 ovarian
K-562 leukemia = tested on: K-562 leukemia
KM12 colon = tested on: KM12 colon
LOX IMVI melanoma = tested on: LOX IMVI melanoma
M14 melanoma = tested on: M14 melanoma
MALME-3M melanoma = tested on: MALME-3M melanoma
MCF7 breast = tested on: MCF7 breast
MDA-MB-231 breast = tested on: MDA-MB-231 breast
MDA-MB-435 melanoma = tested on: MDA-MB-435 melanoma
MDA-MB-468 breast = tested on: MDA-MB-468 breast
MOLT-4 leukemia = tested on: MOLT-4 leukemia
NCI-H226 lung = tested on: NCI-H226 lung
NCI-H23 lung = tested on: NCI-H23 lung
NCI-H322M lung = tested on: NCI-H322M lung
NCI-H460 NSCLC = tested on: NCI-H460 NSCLC
NCI-H522 lung = tested on: NCI-H522 lung
NCI/ADR-RES ovarian = tested on: NCI/ADR-RES ovarian
OVCAR-3 ovarian = tested on: OVCAR-3 ovarian
OVCAR-4 ovarian = tested on: OVCAR-4 ovarian
OVCAR-5 ovarian = tested on: OVCAR-5 ovarian
OVCAR-8 ovarian = tested on: OVCAR-8 ovarian
PC-3 prostate = tested on: PC-3 prostate
RPMI-8226 leukemia = tested on: RPMI-8226 leukemia
RXF 393 renal = tested on: RXF 393 renal
SF-268 CNS = tested on: SF-268 CNS
SF-295 CNS = tested on: SF-295 CNS
SF-539 CNS = tested on: SF-539 CNS
SK-MEL-28 melanoma = tested on: SK-MEL-28 melanoma
SK-MEL-5 melanoma = tested on: SK-MEL-5 melanoma
SK-OV-3 ovarian = tested on: SK-OV-3 ovarian
SN12C renal = tested on: SN12C renal
SNB-19 CNS = tested on: SNB-19 CNS
SNB-75 CNS = tested on: SNB-75 CNS
SW-620 colon = tested on: SW-620 colon
T-47D breast = tested on: T-47D breast
TK-10 renal = tested on: TK-10 renal
U251 glioblastoma = tested on: U251 glioblastoma
UACC-257 melanoma = tested on: UACC-257 melanoma
UACC-62 melanoma = tested on: UACC-62 melanoma
UO-31 renal = tested on: UO-31 renal

SMILES: O=C(c1ccc(F)c(F)c1Nc1ccc(I)cc1F)N1CC(O)([C@H]2CCCCN2)C1
- GI50 ([…]-0 renal): 1240 nM
- TGI (786-0 renal): 2590 nM
- GI50 (A498 renal): 1220 nM
- TGI (A498 renal): 2500 nM
- GI50 (A549 NSCLC): 807 nM
- TGI (A549 NSCLC): 2610 nM
- GI50 (ACHN renal): 1870 nM
- TGI (ACHN renal): 15400 nM
- GI50 (BT-549 breast): 2250 nM
- TGI (BT-549 breast): 5840 nM
- GI50 (CAKI-1 renal): 994 nM
- TGI (CAKI-1 renal): 14400 nM
- GI50 (CCRF-CEM leukemia): 1930 nM
- TGI (CCRF-CEM leukemia): 3570 nM
- GI50 (COLO 205 colon): 101 nM
- TGI (COLO 205 colon): 589 nM
- GI50 (DU-145 prostate): 3810 nM
- TGI (DU-145 prostate): 14800 nM
- GI50 (EKVX NSCLC): 2750 nM
- TGI (EKVX NSCLC): 12600 nM
- GI50 (HCC-2998 colon): 200 nM
- TGI (HCC-2998 colon): 1210 nM
- GI50 (HCT-116 colon): 615 nM
- TGI (HCT-116 colon): 2060 nM
- GI50 (HCT-15 colon): 3330 nM
- TGI (HCT-15 colon): 14500 nM
- GI50 (HL-60(TB) leukemia): 212 nM
- TGI (HL-60(TB) leukemia): 1260 nM
- GI50 (HOP-62 NSCLC): 1280 nM
- TGI (HOP-62 NSCLC): 8420 nM
- GI50 (HOP-92 NSCLC): 888 nM
- TGI (HOP-92 NSCLC): 2170 nM
- GI50 (HS 578T breast): 4160 nM
- TGI (HS 578T breast): 16300 nM
- GI50 (HT29 colon): 185 nM
- TGI (HT29 colon): 1350 nM
- GI50 (IGROV1 ovarian): 500 nM
- TGI (IGROV1 ovarian): 2990 nM
- GI50 (K-562 leukemia): 1170 nM
- TGI (K-562 leukemia): 2420 nM
- GI50 (KM12 colon): 660 nM
- TGI (KM12 colon): 2750 nM
- GI50 (LOX IMVI melanoma): 389 nM
- TGI (LOX IMVI melanoma): 1660 nM
- GI50 (M14 melanoma): 51.2 nM
- TGI (M14 melanoma): 220 nM
- GI50 (MALME-3M melanoma): 31.8 nM
- TGI (MALME-3M melanoma): 118 nM
- GI50 (MCF7 breast): 1880 nM
- TGI (MCF7 breast): 3620 nM
- GI50 (MDA-MB-231 breast): 477 nM
- TGI (MDA-MB-231 breast): 3630 nM
- GI50 (MDA-MB-435 melanoma): 415 nM
- TGI (MDA-MB-435 melanoma): 11600 nM
- GI50 (MDA-MB-468 breast): 2730 nM
- TGI (MDA-MB-468 breast): 5070 nM
- GI50 (MOLT-4 leukemia): 1620 nM
- TGI (MOLT-4 leukemia): 3000 nM
- GI50 (NCI-H226 lung): 1640 nM
- TGI (NCI-H226 lung): 10200 nM
- GI50 (NCI-H23 lung): 422 nM
- TGI (NCI-H23 lung): 2050 nM
- GI50 (NCI-H322M lung): 1510 nM
- TGI (NCI-H322M lung): 13700 nM
- GI50 (NCI-H460 NSCLC): 995 nM
- TGI (NCI-H460 NSCLC): 2280 nM
- GI50 (NCI-H522 lung): 4330 nM
- TGI (NCI-H522 lung): 16900 nM
- GI50 (NCI/ADR-RES ovarian): 9210 nM
- TGI (NCI/ADR-RES ovarian): 21300 nM
- GI50 (OVCAR-3 ovarian): 3430 nM
- TGI (OVCAR-3 ovarian): 13700 nM
- GI50 (OVCAR-4 ovarian): 10400 nM
- TGI (OVCAR-4 ovarian): 22200 nM
- GI50 (OVCAR-5 ovarian): 668 nM
- TGI (OVCAR-5 ovarian): 11900 nM
- GI50 (OVCAR-8 ovarian): 6520 nM
- TGI (OVCAR-8 ovarian): 19600 nM
- GI50 (PC-3 prostate): 5640 nM
- TGI (PC-3 prostate): 16800 nM
- GI50 (RPMI-8226 leukemia): 1780 nM
- TGI (RPMI-8226 leukemia): 4380 nM
- GI50 (RXF 393 renal): 1510 nM
- TGI (RXF 393 renal): 3180 nM
- GI50 (SF-268 CNS): 1700 nM
- TGI (SF-268 CNS): 5370 nM
- GI50 (SF-295 CNS): 13400 nM
- TGI (SF-295 CNS): 26300 nM
- GI50 (SF-539 CNS): 1620 nM
- TGI (SF-539 CNS): 3020 nM
- GI50 (SK-MEL-28 melanoma): 187 nM
- TGI (SK-MEL-28 melanoma): 528 nM
- GI50 (SK-MEL-5 melanoma): 281 nM
- TGI (SK-MEL-5 melanoma): 1620 nM
- GI50 (SK-OV-3 ovarian): 4990 nM
- TGI (SK-OV-3 ovarian): 17800 nM
- GI50 (SN12C renal): 1520 nM
- TGI (SN12C renal): 13200 nM
- GI50 (SNB-19 CNS): 4050 nM
- TGI (SNB-19 CNS): 17300 nM
- GI50 (SNB-75 CNS): 1620 nM
- TGI (SNB-75 CNS): 4340 nM
- GI50 (SW-620 colon): 371 nM
- TGI (SW-620 colon): 10400 nM
- GI50 (T-47D breast): 2650 nM
- TGI (T-47D breast): 6460 nM
- GI50 (TK-10 renal): 3120 nM
- TGI (TK-10 renal): 11800 nM
- GI50 (U251 glioblastoma): 2570 nM
- TGI (U251 glioblastoma): 11300 nM
- GI50 (UACC-257 melanoma): 156 nM
- TGI (UACC-257 melanoma): 428 nM
- GI50 (UACC-62 melanoma): 104 nM
- TGI (UACC-62 melanoma): 378 nM
- GI50 (UO-31 renal): 1610 nM
- TGI (UO-31 renal): 5390 nM
